Values after ≈ are worked out from the molar mass of the structure shown. No end group written: not given here.
What was measured:
C. neoformans [1] = test: microbe, parasite or virus in culture; details: 48 h; for MIC: Cryptococcus neoformans, read-out: C. neoformans MIC; for C. neoformans MIC: 37°C, RPMI 1640, visual reading
Description: (§1) C. neoformans ATCC 90112 and C. gattii ATCC 56990 were purchased from the collection of the Laboratory of Clinical Mycology, Faculty of Pharmaceutical Sciences of UNESP, Araraquara, Brazil. Cryptococcus species were grown at 30°C for 48 to 72 h in Sabouraud dextrose agar.
(§2) Anti-Cryptococcus activity was determined by the broth microdilution method according to document M27-A3 from the Clinical and Laboratory Standards Institute ([47]). Briefly, 100 μl of a fungal suspension at […] in RPMI 1640 medium was added to each well of the 96-well plate. Subsequently, 100 μl of MK58911-NH2, MK58911(1–7)-OH, MK58911(8–14)-NH2, MK58911(4–11)-OH, and MH58911 (0.48 to 250 μg/ml); amphotericin B (0.016 to 8 μg/ml); and fluconazole (0.063 to 32 μg/ml), all diluted in RPMI 1640 medium, was added to the plate. The fungal suspension and RPMI 1640 medium were used as the positive and negative controls, respectively. The plate was incubated at 37°C at 150 rpm for 48 h. Next, fungal growth was visually observed, and the MIC was determined. Three independent experiments were performed.

C. gattii = test: microbe, parasite or virus in culture; details: 48 h; for MIC: Cryptococcus gattii, read-out: C. gattii MIC; for C. gattii MIC: 37°C, RPMI 1640, visual reading
Description: as §1, §2

[2] = tested on: intramacrophage C. neoformans; test: Intramacrophage activity (J774 macrophages infected with C. neoformans, CFU); type: cell-based, Cryptococcus neoformans; details: treatment at the MIC, 24 h; control 4.5 × 10^3 CFU/well
Description: The medium was used as a positive control. […] Three independent experiments were performed.

[3] = tested on: C. neoformans mature biofilm; test: Antibiofilm activity, mature biofilm at 48 h (XTT reduction); type: cell-based, Cryptococcus neoformans
Description: (§4) Briefly, C. neoformans was grown in Sabouraud dextrose broth at 30°C at 150 rpm for 24 h. To evaluate the effect of peptides on biofilm formation, a fungal suspension of 1 × 10^7 cells/ml in minimal medium (20 mg/ml thiamine, 30 mM glucose, 26 mM glycine, 20 mM MgSO4·7H2O, 58.8 mM KH2PO4) was prepared, and 100 μl of the suspension was added to individual wells of 96-well polystyrene plates (TPP, Switzerland). […] The plate was incubated at 37°C for 48 h. To evaluate the effect of the peptides on the mature biofilm, 100 μl of the fungal suspension was added to individual wells of a 96-well plate, and the plate was incubated at 37°C for 48 h. After that period, the supernatant was removed, and the peptides and drugs were added. The plate was again incubated at 37°C for 48 h. The metabolic activity of the biofilms was quantified by the 2,3-bis(2-methoxy-4-nitro-5-sulfophenyl)-5-[(phenylamino)carbonyl]-2H-tetrazolium hydroxide (XTT) reduction assay. For this, a solution with 50 μl of XTT (1 mg/ml in PBS) and 4 μl of menadione (1 mM in ethanol; Sigma-Aldrich, São Paulo, SP, Brazil) was added to each well of the 96-well plate. After 3 h of incubation at 37°C, the fluorescence intensity was measured using a microplate reader (BioTek) at 490 nm. Subsequently, the percentage of metabolic activity of the biofilm treated with peptides/drugs was compared to that of the untreated control. […]

C. neoformans [4] = test: Zebrafish embryo immersion infection model, fungal burden (CFU); type: in vivo, zebrafish embryos; details: immersion infection 1 × 10^6 cells/ml, treatment at the MIC for 24 h
Description: (§3) A zebrafish embryo infection model by immersion was used, as previously described for C. albicans, with some modifications ([22]). The housing and breeding of the fish used in this study received appropriate institutional approvals (permit number 01.0082.2014). Briefly, 15 zebrafish embryos at 24 h postfertilization (hpf) and cultured in embryo medium at 28°C were used. Embryos were coincubated in wells with C. neoformans at 1 × 10^6 cells/ml by immersion. The plate was incubated at 28°C at 80 rpm for 24 h. Subsequently, the embryos were washed twice with embryo medium and transferred to a 96-well plate (1 embryo/well). Next, 100 μl of MK58911-NH2, amphotericin B, and fluconazole, all diluted in embryo medium and at the MIC, was added to the wells. The plate was incubated at 28°C at 80 rpm for 24 h. After that, the embryos were lysed individually in 2% Triton X-100–PBS using a 26-gauge needle. A […] dilution was performed in PBS, and 10 μl was plated onto Sabouraud dextrose agar containing 50 mg/liter chloramphenicol. […] The groups were tested in triplicate, and two independent experiments were performed. Images of some embryos 4 h after infection with C. neoformans, labeled with calcofluor white, were acquired with an In Cell Analyzer 2000 microscope (GE).

in vitro [5] = details: human, MRC5 pulmonary fibroblasts
Description: (§5) The impact of peptides on the viability of pulmonary fibroblasts (MRC5) was also evaluated. Cells were cultured in Dulbecco’s high-glucose modified Eagle medium (DMEM; Gibco, Thermo Fisher Scientific) supplemented with 10% fetal bovine serum (FBS) in 25-cm^2 flasks. For the assay, cells were seeded into 96-well plates at 5 × 10^4 cells/well. The cells were left to grow at 37°C in a 5% CO2 incubator for 24 h until they reached confluence. […] DMEM and dimethyl sulfoxide (DMSO) were used as the positive and negative controls, respectively. The plates were then incubated at 37°C in a 5% CO2 incubator for 24 h. Resazurin (0.01%; Sigma-Aldrich) was then used to assess the viability of the cells according to the manufacturer’s instructions. After 4 h of incubation at 37°C in a 5% CO2 incubator, the fluorescence intensity was measured using a microplate reader (BioTek) at 570 to 600 nm. The fluorescence values were normalized by the positive control and expressed as a percentage of metabolic activity. Values for the 50% inhibitory concentration (IC50) were calculated. Three independent experiments were performed.

[6] = tested on: C. neoformans biofilm formation; test: Antibiofilm activity, biofilm formation at 0 h (XTT reduction); type: cell-based, Cryptococcus neoformans
Description: as §4

in vitro [7] = details: mouse, J774 macrophages
Description: as §5
The impact of peptides on the viability of macrophages (J774) was also evaluated as described above for MRC5 cells.

zebrafish embryos = test: Survival of infected zebrafish embryos under treatment; type: in vivo; details: treatment at the MIC for 24 h
Description: as §3

OC(Cn1cncn1)(Cn1cncn1)c1ccc(F)cc1F [Fluconazole]
MIC (C. neoformans [1]): 1 µg/mL (≈ 3.27 µM)
MIC (C. gattii): 8 µg/mL (≈ 26.1 µM)
intramacrophagic fungal burden (average) [2]: 1.8 × 10^3 CFU/well
susceptibility of C. neoformans biofilms ([3]; biofilms in vitro, corroborates ref 13): resistant
fungal burden (CFU) of embryos' chorion vs untreated control (C. neoformans [4]): did not reduce the fungal burden

LKIAKKVK-OH [MK58911(4–11)-OH, LKIAKKVK-OH]
IC50 at 24 h (in vitro [5]): > 500 µg/mL

KKVKGML-NH2 [MK58911(8–14)-NH2, KKVKGML-NH2]
C. neoformans MIC (C. neoformans [1]): >250 µg/mL
C. gattii MIC (C. gattii): >250 µg/mL
IC50 at 24 h (in vitro [5]): > 500 µg/mL

C[C@@H]1[C@H](O)[C@@H](C)/C=C/C=C/C=C/C=C/C=C/C=C/C=C/[C@H](O[C@@H]2O[C@H](C)[C@@H](O)[C@H](N)[C@@H]2O)C[C@@H]2O[C@](O)(C[C@@H](O)C[C@@H](O)[C@H](O)CC[C@@H](O)C[C@@H](O)CC(=O)O[C@H]1C)C[C@H](O)[C@H]2C(=O)O [Amphotericin B]
MIC (C. neoformans [1]): 0.125 µg/mL (≈ 0.135 µM)
MIC (C. gattii): 0.125 µg/mL (≈ 0.135 µM)
concentration at which formation of C. neoformans biofilms can be prevented [6]: > 0.5 µg/mL
intramacrophagic fungal burden (average) [2]: 1.1 × 10^3 CFU/well
concentration at which mature biofilms can be inhibited ([3]; mature biofilms): > 2 µg/mL
fungal burden (CFU) of embryos' chorion vs untreated control (C. neoformans [4]): significant reduction in CFU

INWLKIA-OH [MK58911(1–7)-OH, INWLKIA-OH]
IC50 at 24 h (in vitro [5]): > 500 µg/mL

INWLHIAHHVHGML-NH2 [MH58911-NH2, INWLHIAHHVHGML-NH2]
C. neoformans MIC (C. neoformans [1]): >250 µg/mL
C. gattii MIC (C. gattii): >250 µg/mL
IC50 at 24 h (in vitro [7]): > 250 µg/mL
IC50 at 24 h (in vitro [5]): > 500 µg/mL

INWLKIAKKVKGML-NH2 [MK58911-NH2, INWLKIAKKVKGML-NH2]
C. neoformans MIC (C. neoformans [1]): 31.25 µg/mL
C. gattii MIC (C. gattii): 15.63 µg/mL
embryo survival under treatment (zebrafish embryos): All embryos survived
IC50 at 24 h (in vitro [7]): 62.5 µg/mL
IC50 at 24 h (in vitro [5]): > 500 µg/mL

— paper PMC8597745, “The Antimicrobial Peptide MK58911-NH2 Acts on Planktonic, Biofilm, and Intramacrophage Cells of Cryptococcus neoformans” (Antimicrobial Agents and Chemotherapy, 2021)
